# Measurements: US20240058464A1 (Fortis Therapeutics, Inc., priority 2021, published 2024)
# Where a SMILES comes first, the peptide text is derived from it. [ ]: non-standard residue; d: D form. The star is where a group is joined. dPhe(4-NHCONH2) = NC(=O)Nc1ccc(C[C@@H](N)C(=O)O)cc1; Dihydroorotyl(S) = O=C1C[C@@H](C(=O)*)NC(=O)N1; dPhe(4-Cl) = N[C@H](Cc1ccc(Cl)cc1)C(=O)O; Phe(4-NH2) = Nc1ccc(C[C@H](N)C(=O)O)cc1; d2Nal = N[C@H](Cc1ccc2ccccc2c1)C(=O)O; Lys(iPr) = CC(C)NCCCC[C@H](N)C(=O)O; d3Pal = N[C@H](Cc1cccnc1)C(=O)O
# System: CD46 expression
# Experiment: CD46 expression by RNA-sequencing in unpaired pre-treatment and post-treatment tumor biopsies
# Type: in vivo, human
# [1] = Breast Cancer, post minus pre, unpaired biopsies
# [2] = Breast Cancer, post vs pre, unpaired biopsies
# [3] = Breast Cancer, post-treatment biopsies, log2-transformed RNA-seq counts
# [4] = Non-Small Cell Lung Cancer, Post minus Pre, unpaired biopsies, log2-transformed counts
# [5] = Non-Small Cell Lung Cancer, post- vs pre-treatment unpaired biopsies
# [6] = Non-Small Cell Lung Cancer, post-treatment biopsies, unpaired, RNA-seq log2-transformed normalized counts
# [7] = Clear Cell Renal Cell Carcinoma, post minus pre, unpaired biopsies
# [8] = Clear Cell Renal Cell Carcinoma, post vs pre, unpaired biopsies
# [9] = Clear Cell Renal Cell Carcinoma, post-treatment biopsies, log2-transformed RNA-seq counts
# [10] = Endocrine Tumor, Post minus Pre, unpaired biopsies, log2-transformed counts
# [11] = Endocrine Tumor, post- vs pre-treatment unpaired biopsies
# [12] = Endocrine Tumor, post-treatment biopsies, unpaired, RNA-seq log2-transformed normalized counts
# [13] = Sarcoma, Post minus Pre, unpaired biopsies, log2-transformed counts
# [14] = Sarcoma, post- vs pre-treatment unpaired biopsies
# [15] = Sarcoma, post-treatment biopsies, unpaired, RNA-seq log2-transformed normalized counts
# [16] = Breast Cancer, Post minus Pre, unpaired biopsies, log2-transformed counts
# [17] = Breast Cancer, post- vs pre-treatment unpaired biopsies
# [18] = Breast Cancer, post-treatment biopsies, unpaired, RNA-seq log2-transformed normalized counts
# [19] = Colorectal Cancer, Post minus Pre, unpaired biopsies, log2-transformed counts
# [20] = Colorectal Cancer, post- vs pre-treatment unpaired biopsies
# [21] = Colorectal Cancer, post-treatment biopsies, unpaired, RNA-seq log2-transformed normalized counts
structure (smiles),measurement,setting,value
CCN1CCN(Cc2ccc(Nc3ncc(F)c(-c4cc(F)c5nc(C)n(C(C)C)c5c4)n3)nc2)CC1 [abemaciclib],CD46 expression diff,[1],−0.15
same,CD46 expression Percentage change,[2],−2.4%
same,CD46 expression Post,[3],6.33
CN(C)C/C=C/C(=O)Nc1cc2c(Nc3ccc(F)c(Cl)c3)ncnc2cc1O[C@H]1CCOC1 [afatinib],CD46 expression diff,[4],0.11
same,CD46 expression Percentage change,[5],1.7%
same,CD46 expression Post,[6],6.43
CCc1cc2c(cc1N1CCC(N3CCOCC3)CC1)C(C)(C)c1[nH]c3cc(C#N)ccc3c1C2=O [alectinib],CD46 expression diff,[4],−0.03
same,CD46 expression Percentage change,[5],−0.5%
same,CD46 expression Post,[6],6.18
CNC(=O)c1ccc(N2C(=S)N(c3cnc(C#N)c(C(F)(F)F)c3)C(=O)C23CCC3)cc1F [apalutamide],CD46 expression diff,"Prostate Cancer, Post minus Pre, unpaired biopsies, log2-transformed counts",−0.03
same,CD46 expression Percentage change,"Prostate Cancer, post- vs pre-treatment unpaired biopsies",−0.5%
same,CD46 expression Post,"Prostate Cancer, post-treatment biopsies, unpaired, RNA-seq log2-transformed normalized counts",6.14
CNC(=O)c1ccccc1Sc1ccc2c(/C=C/c3ccccn3)n[nH]c2c1 [axitinib],CD46 expression diff,[7],−0.29
same,CD46 expression Percentage change,[8],−5.1%
same,CD46 expression Post,[9],5.43
COc1cc2nccc(Oc3ccc(NC(=O)C4(C(=O)Nc5ccc(F)cc5)CC4)cc3)c2cc1OC [cabozantinib],CD46 expression diff,"Clear Cell Renal Cell Carcinoma, Post minus Pre, unpaired biopsies, log2-transformed counts",−0.12
same,CD46 expression Percentage change,"Clear Cell Renal Cell Carcinoma, post- vs pre-treatment unpaired biopsies",−2.1%
same,CD46 expression Post,"Clear Cell Renal Cell Carcinoma, post-treatment biopsies, unpaired, RNA-seq log2-transformed normalized counts",5.44
C[C@@H](Oc1cc(-c2cnn(C3CCNCC3)c2)cnc1N)c1c(Cl)ccc(F)c1Cl [crizotinib],CD46 expression diff,[4],0.16
same,CD46 expression Percentage change,[5],2.7%
CC(C)(C)c1nc(-c2cccc(NS(=O)(=O)c3c(F)cccc3F)c2F)c(-c2ccnc(N)n2)s1 [dabrafenib],CD46 expression diff,"Melanoma, Post minus Pre, unpaired biopsies, log2-transformed counts",0.11
same,CD46 expression Percentage change,"Melanoma, post- vs pre-treatment unpaired biopsies",2.0%
same,CD46 expression Post,"Melanoma, post-treatment biopsies, unpaired, RNA-seq log2-transformed normalized counts",5.42
CC(=O)N[C@H](Cc1ccc2ccccc2c1)C(=O)N[C@H](Cc1ccc(Cl)cc1)C(=O)N[C@H](Cc1cccnc1)C(=O)N[C@@H](CO)C(=O)N[C@@H](Cc1ccc(NC(=O)[C@@H]2CC(=O)NC(=O)N2)cc1)C(=O)N[C@H](Cc1ccc(NC(N)=O)cc1)C(=O)N[C@@H](CC(C)C)C(=O)N[C@@H](CCCCNC(C)C)C(=O)N1CCC[C@H]1C(=O)N[C@H](C)C(N)=O [degarelix] (Ac-[d2Nal][dPhe(4-Cl)][d3Pal]S[Phe(4-NH2)](Dihydroorotyl(S))[dPhe(4-NHCONH2)]L[Lys(iPr)]P[dA]-NH2),CD46 expression diff,"Prostate Cancer, post minus pre, unpaired biopsies",−0.29
same,CD46 expression Percentage change,"Prostate Cancer, post vs pre, unpaired biopsies",−4.6%
same,CD46 expression Post,"Prostate Cancer, post-treatment biopsies, log2-transformed RNA-seq counts",5.94
same,CD46 expression Pre,"Prostate Cancer, pre-treatment biopsies, log2-transformed RNA-seq counts",6.23
C#Cc1cccc(Nc2ncnc3cc(OCCOC)c(OCCOC)cc23)c1 [erlotinib],CD46 expression diff,[4],−0.04
same,CD46 expression Percentage change,[5],−0.6%
same,CD46 expression Post,[6],6.23
COc1cc([C@@H]2c3cc4c(cc3[C@@H](O[C@@H]3O[C@@H]5CO[C@@H](C)O[C@H]5[C@H](O)[C@H]3O)[C@H]3COC(=O)[C@H]23)OCO4)cc(OC)c1O [etoposide],CD46 expression diff,[10],0.11
same,CD46 expression Percentage change,[11],2.0%
same,CD46 expression Post,[12],5.79
same,CD46 expression diff,[4],0.10
same,CD46 expression Percentage change,[5],1.7%
same,CD46 expression Post,[6],5.98
same,CD46 expression diff,[13],0.30
same,CD46 expression Percentage change,[14],6.2%
same,CD46 expression Post,[15],5.13
CO[C@H]1C[C@@H]2CC[C@@H](C)[C@@](O)(O2)C(=O)C(=O)N2CCCC[C@H]2C(=O)O[C@H]([C@H](C)C[C@@H]2CC[C@@H](OCCO)[C@H](OC)C2)CC(=O)[C@H](C)/C=C(\C)[C@@H](O)[C@@H](OC)C(=O)[C@H](C)C[C@H](C)/C=C/C=C/C=C/1C [everolimus],CD46 expression diff,[16],0.09
same,CD46 expression Percentage change,[17],1.4%
same,CD46 expression Post,[18],6.46
CC(C)C[C@H](NC(=O)[C@@H](COC(C)(C)C)NC(=O)[C@H](Cc1ccc(O)cc1)NC(=O)[C@H](CO)NC(=O)[C@H](Cc1c[nH]c2ccccc12)NC(=O)[C@H](Cc1cnc[nH]1)NC(=O)[C@@H]1CCC(=O)N1)C(=O)N[C@@H](CCCNC(=N)N)C(=O)N1CCC[C@H]1C(=O)NNC(N)=O [goserelin],CD46 expression diff,[16],0.00
same,CD46 expression Percentage change,[17],−0.1%
same,CD46 expression Post,[18],6.38
CS(=O)(=O)CCNCc1ccc(-c2ccc3ncnc(Nc4ccc(OCc5cccc(F)c5)c(Cl)c4)c3c2)o1 [lapatinib],CD46 expression diff,[16],−0.08
same,CD46 expression Percentage change,[17],−1.2%
same,CD46 expression Post,[18],6.22
COc1cc2nccc(Oc3ccc(NC(=O)NC4CC4)c(Cl)c3)c2cc1C(N)=O [lenvatinib],CD46 expression diff,"Thyroid Cancer, Post minus Pre, unpaired biopsies, log2-transformed counts",−0.02
same,CD46 expression Percentage change,"Thyroid Cancer, post- vs pre-treatment unpaired biopsies",−0.4%
same,CD46 expression Post,"Thyroid Cancer, post-treatment biopsies, unpaired, RNA-seq log2-transformed normalized counts",5.82
N[C@@H](Cc1cc(I)c(Oc2cc(I)c(O)c(I)c2)c(I)c1)C(=O)O [levothyroxine],CD46 expression diff,"Non-Small Cell Lung Cancer, post minus pre, unpaired biopsies",−0.17
same,CD46 expression Percentage change,"Non-Small Cell Lung Cancer, post vs pre, unpaired biopsies",−2.9%
same,CD46 expression Post,"Non-Small Cell Lung Cancer, post-treatment biopsies, log2-transformed RNA-seq counts",5.87
O=S(=O)(O)CCS [mesna],CD46 expression diff,"Sarcoma, post minus pre, unpaired biopsies",−0.16
same,CD46 expression Percentage change,"Sarcoma, post vs pre, unpaired biopsies",−3.2%
same,CD46 expression Post,"Sarcoma, post-treatment biopsies, log2-transformed RNA-seq counts",4.88
CN(C)C(=N)N=C(N)N [metformin],CD46 expression diff,[19],0.27
same,CD46 expression Percentage change,[20],4.2%
same,CD46 expression Post,[21],6.70
same,CD46 expression diff,[4],0.03
same,CD46 expression Percentage change,[5],0.5%
same,CD46 expression Post,[6],6.07
CN(Cc1cnc2nc(N)nc(N)c2n1)c1ccc(C(=O)N[C@@H](CCC(=O)O)C(=O)O)cc1 [methotrexate],CD46 expression diff,"Bladder Cancer, post minus pre, unpaired biopsies",−0.25
same,CD46 expression Percentage change,"Bladder Cancer, post vs pre, unpaired biopsies",−4.0%
same,CD46 expression Post,"Bladder Cancer, post-treatment biopsies, log2-transformed RNA-seq counts",5.88
same,CD46 expression diff,[16],0.07
same,CD46 expression Percentage change,[17],1.2%
same,CD46 expression Post,[18],6.32
C[C@H]1C[C@@H]2[C@H]([C@@H](O)C[C@@]3(C)[C@H]2CC[C@]3(O)C(=O)CO)[C@@]2(C)C=CC(=O)C=C12 [methylprednisolone],CD46 expression diff,[16],0.31
same,CD46 expression Percentage change,[17],5.0%
same,CD46 expression Post,[18],6.49
same,CD46 expression diff,[4],−0.04
same,CD46 expression Percentage change,[5],−0.6%
same,CD46 expression Post,[6],6.16
CO[C@@]12[C@H](COC(N)=O)C3=C(C(=O)C(C)=C(N)C3=O)N1C[C@@H]1N[C@@H]12 [mitomycin],CD46 expression diff,[19],0.23
same,CD46 expression Percentage change,[20],3.9%
same,CD46 expression Post,[21],5.93
NC(=O)c1cccc2cn(-c3ccc([C@@H]4CCCNC4)cc3)nc12 [niraparib],CD46 expression Percentage change,in vivo,0.1%
same,CD46 expression Post,in vivo,5.72
same,CD46 expression diff,in vivo,0.00
C[C@@H](O)[C@@H]1NC(=O)[C@H](CCCCN)NC(=O)[C@@H](Cc2c[nH]c3ccccc23)NC(=O)[C@H](Cc2ccccc2)NC(=O)[C@@H](NC(=O)[C@H](N)Cc2ccccc2)CSSC[C@@H](C(=O)N[C@H](CO)[C@@H](C)O)NC1=O [octreotide],CD46 expression diff,[10],−0.05
same,CD46 expression Percentage change,[11],−0.9%
same,CD46 expression Post,[12],5.59
Cc1ccc(Nc2nccc(N(C)c3ccc4c(C)n(C)nc4c3)n2)cc1S(N)(=O)=O [pazopanib],CD46 expression diff,[7],−0.22
same,CD46 expression Percentage change,[8],−4.0%
same,CD46 expression Post,[9],5.37
same,CD46 expression diff,[13],−0.10
same,CD46 expression Percentage change,[14],−1.9%
same,CD46 expression Post,[15],5.03
CN(C)C(=O)c1cc2cnc(Nc3ccc(N4CCNCC4)cn3)nc2n1C1CCCC1 [ribociclib],CD46 expression diff,[1],−0.17
same,CD46 expression Percentage change,[2],−2.6%
same,CD46 expression Post,[3],6.30
